From patent publication US20190282616A1, “MACROPHAGES REDIRECT PHAGOCYTOSIS BY NON-PROFESSIONAL PHAGOCYTES AND INFLUENCE INFLAMMATION” (University of Virginia Patent Foundation, priority 2016, published 2019)

Experiments:
[1] = test system: 16HBE14o- human airway epithelial cells; test: In vitro engulfment assay: apoptotic thymocyte uptake by 16HBE14o- cells; assay type: cell-based; settings: IGF-1 treatment
Method: LR73, SVEC-40, BEAS-2B, and 16HBE14o-cells were seeded in a 24 well plate. Thymocytes were isolated from 4-6 week old mice and induced to undergo apoptosis with dexamethasone. Thymocytes or prepared microvesicles were then stained with either CypHer5E (GE Healthcare, PA15401) or TAMRA (Invitrogen, C-1171). LR73 and SVEC-40 cells were incubated with apoptotic thymocytes at a 1:10 phagocyte to target ratio, BEAS-2B at a 1:5 phagocyte to target ratio, and 16HBE14o—at a 1:20 phagocyte to target ratio for 2 hours. Mouse IGF-I (Sigma-Aldrich), human IGF-I (Sigma-Aldrich), human IGF-II (Sigma-Aldrich) were added to the phagocytes at the same time as addition of apoptotic targets. For IGFBP3 studies, IGFBP3 (Sigma-Aldrich) was added to media or supernatant from J774 cells for one hour to allow IGFBP3 to bind to any available IGF-I, then the mix is added to phagocytes along with apoptotic targets. […] Targets were then washed off three times with PBS, and the cells were dissociated from the plate with trypsin and the engulfment assessed by flow cytometry.

LR73 cells = settings: liposomes of 150-200 nm; IGF-1 50 ng/mL, EGF or VEGF 100 ng/mL each
Method: LR73, SVEC-40, BEAS-2B, and 16HBE14o-cells were seeded in a 24 well plate. Thymocytes were isolated from 4-6 week old mice and induced to undergo apoptosis with dexamethasone. Thymocytes or prepared microvesicles were then stained with either CypHer5E (GE Healthcare, PA15401) or TAMRA (Invitrogen, C-1171). LR73 and SVEC-40 cells were incubated with apoptotic thymocytes at a 1:10 phagocyte to target ratio, BEAS-2B at a 1:5 phagocyte to target ratio, and 16HBE14o—at a 1:20 phagocyte to target ratio for 2 hours. Mouse IGF-I (Sigma-Aldrich), human IGF-I (Sigma-Aldrich), human IGF-II (Sigma-Aldrich) were added to the phagocytes at the same time as addition of apoptotic targets. For IGFBP3 studies, IGFBP3 (Sigma-Aldrich) was added to media or supernatant from J774 cells for one hour to allow IGFBP3 to bind to any available IGF-I, then the mix is added to phagocytes along with apoptotic targets. For all pharmacological studies, phagocytes were pre-incubated with the compounds listed below for one hour prior to addition of apoptotic targets: cytochalasin D (Sigma-Aldrich, C8273, 1 μM), Latrunculin A (Tocris, 3973, 150 nM), CK-666 (Tocris, 3950, 25 μM-100 μM), OSI-906 (Selleckchem, S1091, 5 nM-40 nM), NVP-AEW541 (Selleckchem, S1034, 25 nM-100 nM), Rapamycin (Sigma-Aldrich, R0395, […]), MK-2206 2HCl (Selleckchem, S1078, 10 nM-1 U0126-EtOH (Selleckchem, S1102, […]), Wortmannin (Sigma-Aldrich, W1628, 50 nM-200 nM), Y27632 (Calbiochem, 688000, 3.75 μM-15 μM), or GSK269962 (Tocris, 4009, 80 nM-2 μM). […] Targets were then washed off three times with PBS, and the cells were dissociated from the plate with trypsin and the engulfment assessed by flow cytometry.
Liposomes were prepared by dissolving the lipids (phosphatidylserine, dioleoyl phosphatidylcholine, cholesterol and the lipid DiD dye) in chloroform, evaporating chloroform under flow of argon gas in a glass vial, then subjecting the lipid layer to overnight lyophilization to remove traces of organic solvent. Then normal saline was added for hydration, and intense vortexing was preformed to prepare multilamellar vesicles (MIN). Liposomes were repeatedly filtered through a 0.2 um Nuclepore polycarbonate filter to prepare smaller particles. Particle size was verified by dynamic light scattering using Nicomp 370.

IC-21 cells = test: Apoptotic thymocyte engulfment by IC-21 cells; assay type: cell-based; settings: indicated concentrations of mouse IGF-1 or human insulin
[2] = test system: resident peritoneal macrophages; test: Apoptotic cell engulfment by resident peritoneal macrophages; assay type: cell-based, mouse; settings: even with supra-physiological concentrations of IGF-1
Method: (§1) To obtain bone-marrow derived macrophages, femurs were removed from 8 week old mice and flushed with 5 mL of sterile PBS containing 5% FBS. The cell suspension was centrifuged, treated with red blood cell lysis buffer, washed, and then plated onto sterile petri dishes in DMEM containing 10% L929 media, 10% FBS and 1% penicillin/streptomycin/glutamine (PSQ). Media was replenished every 2 to 3 days and differentiated cells were used at day 6 post-harvest. Resident peritoneal macrophages were obtained by flushing the peritoneal cavity of mice with 10 mL of cold PBS containing 5% FBS. Collected cells were spun down, resuspended in X-VIVO 10 (Lonza) and plated at a concentration of 3×10^5 cells per well in a 24 well plate for IGF-1 secretion assays, and 5×10^5 per well in a 24 well plate for engulfment assays. Floating cells were washed the next day and remaining peritoneal macrophages were used 2 days after isolation. Alveolar macrophages were isolated by flushing the lungs with 1 mL of cold PBS instilled intratracheally (five flushes). Collected cells were centrifuged, resuspended in F12K media containing 10% FBS and 1% PSQ, and seeded at 1×10^5 cells per well in a 48-well plate. All floating cells were washed away the next day and remaining cells were used in assays 2 days after isolation.

[3] = test system: resident peritoneal macrophages; test: Liposome uptake by resident peritoneal macrophages; assay type: cell-based, mouse; settings: exposed to IGF-1 vs control
Method: as §1

BEAS-2B cells = test: Uptake of alveolar macrophage derived microvesicles by BEAS-2B cells; assay type: cell-based, human; settings: IGF-1 100 ng/mL
Method: MH-S, mouse alveolar macrophages, or primary mouse alveolar macrophages were seeded. After adherence, the media was replaced with 0.22 μm filtered media to remove any contaminating microvesicles. After an overnight incubation, the supernatant was harvested and spun at 5000×g to remove cell debris and apoptotic bodies. The pellet was discarded and the resulting supernatant was filtered through 0.8 μm filter and spun again at 17,000×g. The pelleted microvesicles were then washed with HBSS and then spun again at 17,000×g. For engulfment assays, microvesicles were stained with TAMRA for 20 minutes and then added to BEAS-2B cells for 90 minutes. For flow cytometry, purified particles were stained with CD11c, Siglec F, and Annexin V (BD Biosciences, Cat. No. 550475) and processed on Imagestream™ imaging flow cytometer (Amnis). Microvesicle size distribution was characterized using qNano (IZON Science) with a NP400 membrane and at least 500 particles were counted. Microvesicles were prepared for cryo-electron microscopy using standard methods and imaged on an FEI TF20.

insulin-like growth factor I [IGF-1] was tested, and the “apoptotic thymocyte uptake by 16HBE14o- cells” value [1] was “engulfment dampening effect of IGF-1 was also seen”, the “uptake of PtdSer containing liposomes by LR73 cells” value (LR73 cells) was “enhanced the uptake of PtdSer containing liposomes” and the “corpse uptake by IC-21 cells” value (IC-21 cells) was “did not affect corpse uptake”. For the same substance, the “corpse uptake by resident peritoneal macrophages” value [2] was “did not affect corpse uptake”, the “liposome uptake by peritoneal macrophages” value [3] was “comparable liposome uptake as control treated cells” and the “uptake of microvesicles by BEAS-2B airway epithelial cells” value (BEAS-2B cells) was “enhanced by IGF-1”.
